Results from US20160000127A1, “MANGO FLAVOR COMPOSITIONS” (MARS, INCORPORATED, priority 2013, published 2016).

What was measured:
[1] = Aroma extract dilution analysis (AEDA) by GC-O of aroma isolates of fresh mango cultivars; settings: GC-O on FFAP column; for FD factor M: Malindi (M) mango cultivar aroma isolate; for FD factor RS: Royal Special (RS) mango cultivar aroma isolate; for FD factor WA: White Alfonso (WA) mango cultivar aroma isolate; for FD factor H: Haden (H) mango cultivar aroma isolate, highest dilution at which the aroma was detectable; for FD factor PS: Praya Sowoy (PS) mango cultivar aroma isolate
From the text: The presently disclosed subject matter was developed in part by analytical analyses on regional mangos performed to avoid overlooking any key compounds that can greatly influence the natural flavorings. To overcome the lack of distinct cultivar flavors available for true-fruit mango tastes, the presently disclosed subject matter has created a flavor system using aroma extract dilution analysis (AEDA) on fresh fruit from various mango cultivars. In addition, sensory experiments with the flavor compositions of the formulas given together with omission experiments were used to determine the relative importance of some of the components in the manufactured flavorings. A Flavor Dilution (FD)-chromatogram of the odorants was obtained for the odorants perceived in aroma extracts of various mango samples. FD-factors reflect the highest dilution at which a substance is still smelled and these are typically determined by AEDA.
AEDA is known as a powerful screening method used for the detection of aroma compounds, which combines a quantitative gas chromatography olfactometry (GCO) procedure for determining the potency of odorants in food. Using FD values from the AEDA tests, a base flavor system using compounds found in all the cultivars was created. Next, cultivars were characterized by their differences and cultivar components were designed by combining compounds identified as contributing to the distinct differences. The base and cultivar flavors were confirmed by creating a flavor system and testing the flavor system in a model confectionery product.
Volatile compounds are extracted from the fruit samples. For example, compounds are extracted with diethyl ether and an aroma isolate was prepared via high vacuum distillation. The aroma isolate was then serially diluted to a range of dilutions from 2 to 1,024. The various dilutions are then analyzed by GCO.
The FD factor data depict the highest dilution at which an odorant is still detectable by GCO. FD factors are relative measurements. The measurement is the ratio of the initial concentration to its most dilute extraction. Such measurements are proportional to a compounds odor activity value (OAV), which is the ratio of the concentration to an odor threshold in the air.
Fresh ripe mangos were peeled, the seed was removed, and the flesh was cut into small 4 cm^3 sections. The sections were immediately frozen in liquid nitrogen, ground into a fine powder with a laboratory mill and sequentially extracted with freshly distilled diethyl ether (1×100 mL; 1×50 mL) on an autoshaker at room temperature for 10 minutes. After centrifugation (5000 rpm for 5 minutes), the supernatants were combined and the residue was discarded. The organic layer was then separated in a separatory funnel and the aqueous layer was discarded. The ether extract (total volume: 150 mL) was then subjected to high-vacuum distillation using the SAFE technique (Engel, W.; Bahr, W.; Schieberle, P., Solvent assisted flavour evaporation—a new and versatile technique for the careful and direct isolation of aroma compounds from complex food matrices. European Food Research and Technology 1999, 209, 237-241.). The distillation apparatus was thermostated at 40° C. and kept under high vacuum (10-5 mbar). The sample was dropped into the extraction flask of the apparatus over 40 minutes, after which the extraction was continued for an additional 30 minutes. At the completion of the extraction time, the vacuum was broken and the collection flask was removed. The sample was thawed at room temperature and dried over anhydrous sodium sulfate. The sample was then concentrated to approximately 2 ml using a Vigreux column (50×1 cm) held at 50° C. and finally concentrated (total volume: 200 uL) under a gentle stream of nitrogen. The aroma quality of the isolate was then evaluated to ensure that it closely matched the odor quality of the fresh ripe mango flesh.
An Agilent 6890 series GC system was used for GC-O analysis. […]

[2] = Odor threshold levels (recognition and detection) of odorants; settings: Tables 1-5, relative to the other odorants of the same group
From the text: As used herein, “threshold level” relates to an amount at which a flavor is detected or recognized. A detection level is the point at which a taste is detected as compared to a control such as water. A recognition level is the point at which a specific taste is recognizable.
Additional measurements can be used as a proxy for potency, whereby similar calculations can be configured to prepare a base blend. For example, threshold levels can be used to determine a reference point for potency. For example, threshold levels include detection levels, where a taste is detected in comparison to a control, for example water. Threshold levels also include recognition levels whereby a taste is specifically recognized, which is generally a higher level than a mere detection level. The threshold levels achieve an equivalent organoleptic effect whereby a specific target is either detectable or recognized.
By way of example, the following table provides representative threshold levels in ppb for both detection and recognition levels.
The specific odorant listed has been categorized one of the highest potency odorants within the noted class. As such, the highest potency relates to the littlest amount to be used in the composition. Therefore, relative potencies are then computed by orders of magnitude as detailed in the above Table. Additional threshold levels are discussed below in Example 4.
The following Example provides odor thresholds of weakest and strongest odorants with the different aroma groups, as well as alternative compounds for the first tier of odorants. These odorants are representative in defining the unique sensory attributes of the aroma isolates of the different cultivars.

[3] = cited from earlier work; for recognition (ppb) / detection (ppb): Table 8, representative threshold level; for recognition (ppb): point at which a specific taste is recognizable; for recog. ppb: Table 21, odor thresholds from literature (footnotes a-g); for detection (ppb): point at which a taste is detected compared to a control such as water

SMILES	FD factor WA [1]	FD factor H [1]	recog. ppb [3] [ppb]	FD factor PS [1]	also measured
C=CC=CC=CCC=CCC [1,3,5,8-undecatetraene]	128				FD factor M [1]: 512; FD factor RS [1]: 512
C=C/C=C/C=C\CCCCC [1-(E,Z)-3,5-undecatriene]	512	512	0.003		potency within odorant group (footnote *) [2]: *Most potent; recognition (ppb) [3]: 0.003 ppb
CC1=CCC(C(C)(C)S)CC1 (stereo not drawn) [1-p-menthene-8-thiol]			0.0001		
CC(=O)C(C)=O [2,3-butandione]			2.9	32	
CCc1ncc(C)nc1CC [2,3-diethyl-5 methyl pyrazine]					FD factor RS [1]: 128
CC(=O)C1=NCCC1 [2-acetyl-1-pyrroline]		512		128	FD factor M [1]: 512
OCCc1ccccc1 [2-phenylethanol]		128			
CSCCC=O [3-(methylthio)-propanal]	32	512			
CC1=C(O)C(=O)OC1C (stereo not drawn) [3-hydroxy-4,5-dimethyl-2(5H)-furanone]			1.1		potency within odorant group (footnote *) [2]: *Most potent; recognition (ppb) [3]: 1.1 ppb; detection (ppb) [3]: 0.49 ppb
CCCCCC(=O)C(C)C(C)=O (stereo not drawn) [3-methyl-2,4-nonandione]				128	
CC1=C(O)C(=O)C(C)O1 (stereo not drawn) [4-hydroxy-2,5-dimethyl-3(2H)-furanone]	2048	2048	160	2048	FD factor M [1]: 2048; FD factor RS [1]: 2048
CC(=O)CC(C)(C)S [4-mercapto-4-methyl-2-pentanone]			0.0001		recognition (ppb) [3]: 0.0001 ppb
COC1=C(C)OC(C)C1=O (stereo not drawn) [4-methoxy-2,5-dimethyl-3(2H)-furanone]			3400		FD factor RS [1]: 128
CCCCCC/C=C/C=O [(E)-2-nonenal]			0.4	128	
CC/C=C/CC=O [(E)-3-hexenal]			160	512	
CC/C=C\CC/C=C/C=O [(E,Z)-2,6-nonadienal]			0.0091	128	potency within odorant group (footnote *) [2]: *Most potent; recognition (ppb) [3]: 0.0091 ppb; detection (ppb) [3]: 0.0045 ppb

SMILES	FD factor WA [1]	FD factor H [1]	recog. ppb [3] [ppb]	FD factor PS [1]	also measured
CC/C=C\CC=O [(Z)-3-hexenal]			0.21	128	
CCCC(=O)O [butanoic acid]			7700	128	
CC(=O)CCC1=C(C)CCCC1(C)C [dihydro-β-ionone]					FD factor RS [1]: 128
CCCC(=O)OCC [ethyl butanoate]	128	2048	2.4	128	FD factor RS [1]: 32
CCOC(=O)C(C)CC (stereo not drawn) [ethyl-2-methybutanoate]		512	0.063		potency within odorant group (footnote *) [2]: *Most potent; recognition (ppb) [3]: 0.063 ppb; detection (ppb) [3]: 0.013 ppb
CCOC(=O)C(C)C [ethyl-2-methypropanoate]		512	0.22		
CCOC(=O)CC(C)C [ethyl-3-methylbutanoate]		2048	0.11		
C=CC(=C)CCC=C(C)C [myrcene]	128		4.9		FD factor M [1]: 128; recognition (ppb) [3]: 4.9 ppb; detection (ppb) [3]: 1.2 ppb
C=C/C(C)=C/CC=C(C)C [β-(E)-ocimene]	128		34		
C=C/C(C)=C\CC=C(C)C [β-(Z)-ocimene]	512		34		
CC(=O)/C=C/C1=C(C)CCCC1(C)C [β-ionone]	512		8.4		FD factor M [1]: 32; FD factor RS [1]: 512; recognition (ppb) [3]: 8.4 ppb; detection (ppb) [3]: 3.5 ppb
CCCCCCC1CCC(=O)O1 (stereo not drawn) [γ-decalactone]			2.6		
CCCCC1CCC(=O)O1 (stereo not drawn) [γ-octalactone]	512	512	24	128	FD factor M [1]: 512; FD factor RS [1]: 512; potency within odorant group (footnote *) [2]: *Most potent; recognition (ppb) [3]: 24 ppb; detection (ppb) [3]: 6.5 ppb
CCCCCC1CCCC(=O)O1 (stereo not drawn) [δ-decalactone]			51		
CCCC1CCCC(=O)O1 (stereo not drawn) [δ-octalactone]	128	512			FD factor M [1]: 128
